From patent US7094773B2, “LTA4 hydrolase inhibitors” (Institut National de la Santa et de la rescherche Medicale …, priority 1999, dated 2006)
Where a name gives a salt, the structure may show the parent alone.

Experiments:
[1] = biological target: T1, human recombinant LTA4 hydrolase (Homo sapiens, UniProt P09960); test: Inhibition of the aminopeptidase activity of recombinant LTA4 hydrolase (fluorimetric, Ala-AMC substrate); type: biochemical; details: in vitro
T1 construct: made in house; host or cells: E. coli JM109
T1 sequence (P09960 1-611): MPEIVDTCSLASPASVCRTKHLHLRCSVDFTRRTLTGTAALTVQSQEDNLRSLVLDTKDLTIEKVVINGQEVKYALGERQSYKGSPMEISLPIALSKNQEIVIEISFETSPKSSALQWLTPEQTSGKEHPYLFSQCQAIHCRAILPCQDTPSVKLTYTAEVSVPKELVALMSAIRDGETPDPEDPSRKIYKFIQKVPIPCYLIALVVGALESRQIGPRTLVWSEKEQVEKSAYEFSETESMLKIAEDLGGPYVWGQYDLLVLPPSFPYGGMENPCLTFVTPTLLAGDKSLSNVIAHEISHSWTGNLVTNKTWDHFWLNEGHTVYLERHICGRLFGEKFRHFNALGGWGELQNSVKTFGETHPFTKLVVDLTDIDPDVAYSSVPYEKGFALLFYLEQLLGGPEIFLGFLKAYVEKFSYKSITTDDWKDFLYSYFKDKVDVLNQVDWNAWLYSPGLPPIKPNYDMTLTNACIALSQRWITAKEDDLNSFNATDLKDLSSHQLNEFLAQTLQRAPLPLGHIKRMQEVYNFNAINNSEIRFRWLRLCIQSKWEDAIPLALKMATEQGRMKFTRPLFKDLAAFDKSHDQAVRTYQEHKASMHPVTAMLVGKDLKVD
Experimental: The compounds were tested using human recombinant LTA4 hydrolase (Minami et al., FEBS Letters, 1988, 229: 279). The LTA4 hydrolase expressed by E. coli JM109 is purified mainly according to Minami et al., (J. Biol. Chem., 1987, 262: 13873).
The inhibition of the aminopeptidase activity of the enzyme is measured by means of a fluorimetric method in 96-well microplates. The recombinant enzyme (0.5 μg in 50 μl of 50 mM Tris-HCl pH 7.4) is preincubated for 10 minutes at 37° C. in the presence of inhibitor and of dithiothreitol (DTT, 10^−5 M). The substrate alanyl-amido-methylcoumarin (Ala-AMC, 25 μM-Tris HCl 50 mM, pH 7.4) is added and the incubation is continued for 15 minutes at 37° C. The release of AMC is measured by fluorimetry.

SMILES	melting point	Ki [1]
Br.NC(CCCOc1ccc(Cc2ccccc2)cc1)C(=O)O (racemic)	199 °C	–
Br.NC(CCCOc1ccc(Oc2ccccc2)cc1)C(=O)O (racemic)	162 °C	–
Br.NC(CCCCCOc1ccc(Cc2ccccc2)cc1)C(=O)O (racemic)	100 °C	–
Br.NC(CCCCOc1ccc(-c2ccccc2)cc1)C(=O)O (racemic)	185 °C	–
Br.CCCCCCOc1ccc(OCCCCC(N)C(=O)O)cc1 (racemic)	135 °C	–
Br.NC(CCCCCCOc1ccc(Cc2ccccc2)cc1)C(=O)O (racemic)	120 °C	–
Br.NC(CCCCOc1ccc(Oc2ccccc2)cc1)C(=O)O (racemic)	130 °C	–
NC(CCCCOc1ccc(Cc2ccccc2)cc1)C(=O)O (racemic) [compound 51, 2-(RS)-amino-6-(4-benzylphenoxy)hexanoic acid hydrobromide]	–	0.032 µM
